Our source for the efflux ratio, Papp A→B and Papp B→A values is patent publication US12428433B2, “Fluorine-containing heterocyclic derivatives with macrocyclic structure and use thereof” (ScinnoHub Pharmaceutical Co., Ltd, priority 2019, dated 2025).

The series deals with MDR1 (P-gp). Put plainly: Bidirectional permeability study on MDCK-MDR1 cell line. It is filed as in vitro ADME. As to conditions: dog; for efflux ratio at 2 h, 1 μM: MDCK-MDR1, pH 7.4, read-out: Excretion ratio = Papp (B-A)/Papp (A-B); for Papp A→B at 2 h, 1 μM / Papp B→A at 2 h, 1 μM: pH 7.4, MDCK-MDR1, 1 μM. As for the experimental part: MDCK-MDR1 cells were purchased from Netherlands Cancer Institute, and cells between 10 and 20 generations were used.
1) Before cell inoculation, 50 μL of cell medium was added into each well of an upper chamber of Transwell, and […] of cell medium was added into a lower culture plate. The culture plate was placed in an incubator at 37° C. under 5% CO2 for incubation for 1 hour, and then could be used for inoculating cells.
2) The MDCK-MDR1 cells were resuspended with the medium, so that a final concentration was 1.56×10^6 cells/mL. A cell suspension was added into an upper chamber of a 96-well Transwell culture plate according to 50 μL per well. The incubator was set at 37° C. under 5% CO2, and was ensured to have a relative humidity of 95% for culturing for 4 days to 8 days. The medium was replaced 48 hours after inoculation, the culturing lasted for 4 days to 8 days, and the medium was replaced every other day.
4) Calculation of resistance value: measured resistance value (ohms)×film area (cm^2)=TEER value (ohm cm^2), and if the TEER value was less than 42 ohms cm^2, the well could not be used for a penetration experiment.
1) The MDCK-MDR1 Transwell culture plate was taken from the incubator. The cell monolayer film was moistened and washed twice with a preheated HBSS (25 mM HEPES, pH 7.4) buffer, and incubated at 37° C. for 30 minutes.
2) A stock solution of the control compound and the test compound was diluted in DMSO to obtain a 200 μM solution, and then diluted with HBSS (10 mM HEPES, pH 7.4) to obtain a 1 μM working solution. A final concentration of DMSO in the incubation system was 0.5%.
3) A transfer rate of the compound from a top end to a base end was measured. 125 μL of working solution was added into the upper chamber (top end), then 50 μL of sample solution was immediately transferred from a lower chamber (base end) to a 96-well plate filled with 200 μL of acetonitrile containing an internal standard as a 0-minute administration sample (A-B) for detection, and 235 μL of HBSS (25 mM HEPES, pH 7.4) buffer was added into the lower chamber. The internal standard contained 100 nM alprazolam, 200 nM caffeine and 100 nM tolbutamide. The 50 μL of sample solution transferred above was vortexed at a speed of 1,000 rpm for 10 minutes.
4) A transfer rate of the compound from the base end to the top end was measured. 285 μL of working solution was added into the lower chamber (base end), then 50 μL of sample solution was immediately transferred from the upper chamber (top end) to a 96-well plate filled with 200 μL of acetonitrile containing an internal standard as a 0-minute administration sample (B-A) for detection, and 75 μL of HB SS (25 mM HEPES, pH 7.4) buffer was added into the upper chamber. The internal standard contained 100 nM alprazolam, 200 nM caffeine and 100 nM tolbutamide. The 50 μL of sample solution transferred above was vortexed at a speed of 1,000 rpm for 10 minutes. The experiment from the top end to the base end and the experiment from the base end to the top end should be carried out simultaneously.
5) After adding the buffers into the lower chamber and the upper chamber respectively, the MDCK-MDR1 Transwell culture plate was incubated at 37° C. for 2 hours.
6) After finishing incubating, 50 μL of sample solutions were respectively taken from an administration side (the upper chamber: Ap→Bl flux, the lower chamber: Bl→Ap) and a receiving side (the lower chamber: Ap→Bl flux, the upper chamber Bl→Ap) and added into new 96-well plates, and 4 times volume of […] containing the internal standard was added into the well plates. The internal standard substance contained 100 nM alprazolam, 200 nM caffeine and 100 nM tolbutamide. The solution was vortexed for 10 minutes, and then centrifuged at 3,220 g for 40 minutes. 100 μL of supernatant was sucked and mixed with equal volume of ultrapure water, and then subjected to LC-MS/MS analysis. […]

`C[C@H]1Nc2nc3c(cnn3cc2F)C(=O)N[C@H]2C[C@H](C2)Oc2ncc(F)cc21` [Example 3, (3^1S,3^3S,6^3E,6^4E,8R)-1^5,6^6-difluoro-8-methyl-2-oxo-4,7-diaza-6(3,5)-pyrazolo[1,5-a]pyrimidine-1(2,3)-pyridine-3(1,3)-cyclobutylcyclooctane-5-one]: the efflux ratio at 2 h, 1 μM is 4.67; the Papp A→B at 2 h, 1 μM came to 11.1 ×10⁻⁶ cm/s; the Papp B→A at 2 h, 1 μM is 51.9 ×10⁻⁶ cm/s.

Regarding `C[C@H]1Nc2ccn3ncc(c3n2)C(=O)N[C@H]2C[C@H](C2)Oc2ncc(F)cc21` [Positive control 2, reference compound], the efflux ratio at 2 h, 1 μM is 19.4; the Papp A→B at 2 h, 1 μM was determined as 3.31 ×10⁻⁶ cm/s; the Papp B→A at 2 h, 1 μM was 64.4 ×10⁻⁶ cm/s.
